Measured values as given in patent US20230330094A1, “COMBINATION COMPOSITIONS AND METHODS FOR TREATING CANCER” (The Board of Supervisors of Louisiana State University and …, priority 2020, published 2023).
Entries after “also recorded” stand apart in the source; their conditions may differ.

Columns and labels:
P2×2 = biological target: T1, P2×2 (Homo sapiens, UniProt Q9UBL9); details: cited from earlier work
T1 sequence (Q9UBL9 1-471): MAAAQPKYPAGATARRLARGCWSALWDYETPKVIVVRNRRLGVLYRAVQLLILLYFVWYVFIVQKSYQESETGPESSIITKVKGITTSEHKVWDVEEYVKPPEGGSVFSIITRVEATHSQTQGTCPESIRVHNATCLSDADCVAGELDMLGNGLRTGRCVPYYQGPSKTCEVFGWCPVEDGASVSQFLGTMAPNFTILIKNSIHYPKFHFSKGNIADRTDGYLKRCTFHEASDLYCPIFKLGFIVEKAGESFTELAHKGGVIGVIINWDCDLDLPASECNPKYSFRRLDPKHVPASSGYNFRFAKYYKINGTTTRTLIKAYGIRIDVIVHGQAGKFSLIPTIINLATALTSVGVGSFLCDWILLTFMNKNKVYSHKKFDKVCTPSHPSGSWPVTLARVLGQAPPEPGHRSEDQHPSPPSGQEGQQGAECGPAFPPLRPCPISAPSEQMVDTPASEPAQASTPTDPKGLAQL

P2Xs = details: cited from earlier work
P2Y 2 = P2Y 2 (Homo sapiens, UniProt P41231); details: cited from earlier work
Chain of P2Y 2 (P41231 whole entry, species assumed): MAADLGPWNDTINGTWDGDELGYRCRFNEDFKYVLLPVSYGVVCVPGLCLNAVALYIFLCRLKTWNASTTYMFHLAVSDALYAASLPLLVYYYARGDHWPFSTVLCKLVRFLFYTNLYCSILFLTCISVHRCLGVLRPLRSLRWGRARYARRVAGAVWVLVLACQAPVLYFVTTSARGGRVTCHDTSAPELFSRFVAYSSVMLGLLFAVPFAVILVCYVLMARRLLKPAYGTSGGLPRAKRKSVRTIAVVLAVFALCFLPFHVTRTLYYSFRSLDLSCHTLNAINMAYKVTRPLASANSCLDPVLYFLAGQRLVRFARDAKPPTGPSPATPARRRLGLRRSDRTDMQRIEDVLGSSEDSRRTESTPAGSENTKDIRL

P2Y4 = P2Y4 (Homo sapiens, UniProt P51582); details: cited from earlier work
Chain of P2Y4 (P51582 whole entry, species assumed): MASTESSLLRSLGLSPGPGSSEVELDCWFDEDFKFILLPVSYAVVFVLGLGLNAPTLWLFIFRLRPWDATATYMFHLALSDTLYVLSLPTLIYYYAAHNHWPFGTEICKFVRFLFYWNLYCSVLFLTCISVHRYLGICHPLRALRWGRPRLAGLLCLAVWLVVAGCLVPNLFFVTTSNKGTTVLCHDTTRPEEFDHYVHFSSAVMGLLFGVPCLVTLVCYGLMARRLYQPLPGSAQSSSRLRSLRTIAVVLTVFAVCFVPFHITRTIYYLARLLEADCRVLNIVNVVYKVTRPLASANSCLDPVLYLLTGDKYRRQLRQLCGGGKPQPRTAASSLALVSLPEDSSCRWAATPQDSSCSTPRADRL

[1] = system: luciferase-modified U87MG tumor cells; experiment: In vivo bioluminescent imaging of intracranial tumor growth, orthotopic GBM mouse model; details: imaging days 13, 20 and 30; vs saline/vehicle
[2] = system: luciferase-modified U87MG tumor cells; experiment: Ex vivo T1-weighted MRI tumor volume, orthotopic GBM mouse model; type: in vivo; details: day 30, ex vivo MRI; vs saline
Method: Athymic nude female mice (Charles Rivers Laboratories and Envigo), 6 to 8 weeks of age, were anesthetized with a ketamine/xylazine cocktail solution (100 mg/kg; 10 mg/kg). Then, mice were secured in a stereotactic head frame and a midline 1 cm incision over the scalp was made. Natural tears lubricant was applied to the eyes. For each mouse, 5 × 10^6 U87MG cells in 5 µL serum free Dulbecco’s Modified Eagle Medium (DMEM) tagged with a luciferase […] gene were implanted into the right hippocampus using a 10 µL Hamilton syringe at the following coordinates, in reference to the bregma: 1.5 mm lateral, 1.5 mm posterior and 3.5 mm in depth; the needle was lowered to 3.5 mm and pulled up by 1 mm, prior to the injection (Marrero et al., 2014) (FIG. 1B). Rectal and cranial temperatures will be maintained at 36-37° C. during surgical procedure. […]
Treatment was administered starting on day 13 after implantation, and intracranial tumor growth was quantified using in vivo bioluminescent imaging on days 13 (before treatment) and then 20 and 30. […]
Cheshire image processing software (Hayden Image/Processing Group, Waltham, MA), was used to manually outline whole brain and tumor volumes enhanced by Gd deposition. […] Whole brain and tumor volumes (mm^3) were extracted and analyzed (Jeffes et al., 2005; Blasiak et al., 2013). […]

[3] = Physiological variables (body weight, temperature, survival) in GBM mouse model; type: in vivo
Method: Athymic nude female mice (Charles Rivers Laboratories and Envigo), 6 to 8 weeks of age, were anesthetized with a ketamine/xylazine cocktail solution (100 mg/kg; 10 mg/kg). Then, mice were secured in a stereotactic head frame and a midline 1 cm incision over the scalp was made. Natural tears lubricant was applied to the eyes. […] Rectal and cranial temperatures will be maintained at 36-37° C. during surgical procedure. The incision was closed using black monofilament nylon 5.0 sterile sutures and the area was cleaned with betadine solution. The mice were placed in individual cages and observed daily for weight, temperature, and locomotor changes. Mice were perfused at the end of the 30-day survival, brains removed and ex vivo MRI imaging were conducted.
Mice were anesthetized with a ketamine/xylazine cocktail solution (100 mg/kg; 10 mg/kg) and secured in a stereotactic head frame. A midline, 1 cm incision was made over the scalp. Natural tear lubricant was applied to the eyes. For each mouse, 5 × 10^6 U87MG cells in 5 µL serum-free Dulbecco’s Modified Eagle Medium (DMEM) were injected into the right hippocampus using a 10 µL Hamilton syringe at the following coordinates related to the bregma: 1.5 mm lateral, 1.5 mm posterior, and 3.5 mm in depth. […]

recurrent GBM = details: single agent or in combination with chemotherapy; cited from earlier work

Compound	pEC50 (P2×2) (P2×2)	pEC50 (P2Xs) (P2Xs)	pEC50 (P2Y 2) (P2Y 2)	pEC50 (P2Y4) (P2Y4)	Bioluminescent tumor growth/size vs vehicle (in words) [1]	MRI (T1WI) tumor volume reduction compared to vehicle [2]	MRI (T1WI) tumor volume vs vehicle (in words) [2]	Survival ([3]; 30-day survival period)	Change in rectal temperature compared to vehicle ([3]; during the 30 days of survival)	Radiographic response rate (recurrent GBM)
Cc1ccc(C(=O)Nc2ccc(S(=O)(=O)O)c3cc(S(=O)(=O)O)cc(S(=O)(=O)O)c23)cc1NC(=O)c1cccc(NC(=O)Nc2cccc(C(=O)Nc3cc(C(=O)Nc4ccc(S(=O)(=O)O)c5cc(S(=O)(=O)O)cc(S(=O)(=O)O)c45)ccc3C)c2)c1 [Suramin]	4.5	5.4	4.3	4.0	–	–	–	–	–	–
Avastin: recombinant humanized anti-VEGF monoclonal antibody	–	–	–	–	reduced tumor size; also recorded: repress orthotopic GBM; also recorded: significantly reduced tumorigenesis; also recorded: significant reduction in growth and size	67%	reduced GBM tumor volumes	improved survival	No significant changes	up to 40%
